According to patent publication US20230167088A1, “1-PYRAZINYLPYRAZOLYL-3-OXYALKYL ACIDS AND THEIR DERIVATIVES, AND THEIR USE FOR CONTROL OF UNDESIRED PLANT GROWTH” (BAYER AKTIENGESELLSCHAFT, priority 2020, published 2023):

Tests used:
[1] = tested on: ECHCG; test: Herbicidal pre-emergence action 2a (greenhouse pots, visual scoring); format: in vivo, Echinochloa crus-galli; conditions: dosage 320 g/ha, visual scoring after about 3 weeks
How it was run: (§1)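 Visual percent rating, ~3 weeks after treatment, untreated pots as reference (0% = control-like, 100% = killed). Application: formulated compound on soil surface over seeds, 320 g/ha and/or 80 g/ha.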

[2] = tested on: ECHCG; test: Herbicidal post-emergence action 1a (greenhouse pots, visual rating); format: in vivo, Echinochloa crus-galli; conditions: rated visually about 3 weeks after treatment, 100% = plants have died, 0% = like control plants
How it was run: (§2)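 Visual scoring versus untreated plants (100% = plants dead, 0% = as control) followed roughly 3 weeks in the greenhouse after treatment. Plants grown in sandy loam pots had been sprayed on green parts at the one-leaf stage, 2–3 weeks post-sowing, with aqueous WP/EC preparations containing 0.5% additive, 600 l/ha, at 320 and/or 80 g/ha.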

[3] = tested on: PHBPU; test: Herbicidal pre-emergence action 2a (greenhouse pots, visual scoring); format: in vivo, Pharbitis purpurea; conditions: dosage 320 g/ha, visual scoring after about 3 weeks vs untreated controls
Description: (§3) [table] a) Seeds of monocotyledonous and dicotyledonous weed plants and crop plants are placed in plastic or organic plant pots and covered with soil. The compounds of the invention, formulated in the form of wettable powders (WP) or as emulsion concentrates (EC), are then applied onto the surface of the covering soil as aqueous suspension or emulsion with addition of 0.5% additive at a water application rate of 600 1/ha (converted). After the treatment, the pots are placed in a greenhouse and kept under good growth conditions for the trial plants. After about 3 weeks, the effect of the preparations is scored visually in comparison with untreated controls as percentages. For example, 100% activity=the plants have died, 0% activity=like control plants. Tables B1 to B15 below show the effects of selected compounds of the general formula (I) according to Tables 1 and 2 on various harmful plants and an application rate corresponding to 320 g/ha and/or 80 g/ha, which were obtained by the experimental procedure mentioned above.

[4] = tested on: AMARE; test: Herbicidal post-emergence action 1a (greenhouse pots, visual rating); format: in vivo, Amaranthus retroflexus; conditions: visual rating about 3 weeks after treatment
How it was run: as §2

[5] = tested on: POLCO; test: Herbicidal pre-emergence action 2a (greenhouse pots, visual scoring); format: in vivo, Polygonum convolvulus; conditions: dosage 320 g/ha, visual scoring after about 3 weeks vs untreated controls
How it was run: as §1

[6] = tested on: SETVI; test: Herbicidal post-emergence action 1a (greenhouse pots, visual rating); format: in vivo, Setaria viridis; conditions: rated visually about 3 weeks after treatment, 100% = plants have died, 0% = like control plants
How it was run: as §2

[7] = tested on: ALOMY; test: Herbicidal pre-emergence action 2a (greenhouse pots, visual scoring); format: in vivo, Alopecurus myosuroides; conditions: dosage 320 g/ha, visual scoring after about 3 weeks
How it was run: as §1

[8] = tested on: SETVI; test: as above; format: in vivo, Setaria viridis; conditions: dosage 320 g/ha, visual scoring after about 3 weeks vs untreated controls
How it was run: as §1

[9] = tested on: ABUTH; test: Herbicidal post-emergence action 1a (greenhouse pots, visual rating); format: in vivo, Abutilon theophrasti; conditions: visual rating about 3 weeks after treatment
How it was run: as §2

[10] = tested on: VERPE; test: Herbicidal pre-emergence action 2a (greenhouse pots, visual scoring); format: in vivo, Veronica persica; conditions: dosage 320 g/ha, visual scoring after about 3 weeks vs untreated controls
How it was run: as §1

[11] = tested on: VERPE; test: Herbicidal post-emergence action 1a (greenhouse pots, visual rating); format: in vivo, Veronica persica; conditions: visual rating about 3 weeks after treatment
How it was run: as §2

[12] = tested on: AVEFA; test: as above; format: in vivo, Avena fatua; conditions: rated visually about 3 weeks after treatment, 100% = plants have died, 0% = like control plants
How it was run: as §2

[13] = tested on: PHBPU; test: as above; format: in vivo, Pharbitis purpurea; conditions: visual rating about 3 weeks after treatment
How it was run: as §2

[14] = tested on: LOLRI; test: Herbicidal pre-emergence action 2a (greenhouse pots, visual scoring); format: in vivo, Lolium rigidum; conditions: dosage 320 g/ha, visual scoring after about 3 weeks vs untreated controls
How it was run: as §1

[15] = tested on: ABUTH; test: as above; format: in vivo, Abutilon theophrasti; conditions: dosage 320 g/ha, visual scoring after about 3 weeks vs untreated controls
Description: as §3

[16] = tested on: MATIN; test: as above; format: in vivo, Matricaria inodora; conditions: dosage 320 g/ha, visual scoring after about 3 weeks vs untreated controls
How it was run: as §1

[17] = tested on: POLCO; test: Herbicidal post-emergence action 1a (greenhouse pots, visual rating); format: in vivo, Polygonum convolvulus; conditions: visual rating about 3 weeks after treatment
How it was run: as §2

[18] = tested on: LOLRI; test: as above; format: in vivo, Lolium rigidum; conditions: rated visually about 3 weeks after treatment, 100% = plants have died, 0% = like control plants
How it was run: as §2

[19] = tested on: AMARE; test: Herbicidal pre-emergence action 2a (greenhouse pots, visual scoring); format: in vivo, Amaranthus retroflexus; conditions: dosage 320 g/ha, visual scoring after about 3 weeks vs untreated controls
How it was run: as §1

[20] = tested on: AVEFA; test: as above; format: in vivo, Avena fatua; conditions: dosage 320 g/ha, visual scoring after about 3 weeks
How it was run: as §1

[21] = tested on: ALOMY; test: Herbicidal post-emergence action 1a (greenhouse pots, visual rating); format: in vivo, Alopecurus myosuroides; conditions: rated visually about 3 weeks after treatment, 100% = plants have died, 0% = like control plants
How it was run: as §2

[22] = tested on: MATIN; test: as above; format: in vivo, Matricaria inodora; conditions: visual rating about 3 weeks after treatment
How it was run: as §2

SMILES	Pre-emergence action against ECHCG in % [1]	Post-emergence action against ECHCG in % ([2]; Dosage 320 g/ha)	Pre-emergence action against PHBPU in % [3]	Post-emergence action against AMARE in % ([4]; dosage 320 g/ha)	Pre-emergence action against POLCO in % [5]	Post-emergence action against SETVI in % ([6]; Dosage 80 g/ha)	Post-emergence action against SETVI in % ([6]; Dosage 320 g/ha)	Pre-emergence action against ALOMY in % [7]	Pre-emergence action against SETVI in % [8]	Pre-emergence action against VERPE in % [10]	Post-emergence action against VERPE in % ([11]; dosage 80 g/ha)	Post-emergence action against VERPE in % ([11]; dosage 320 g/ha)	Post-emergence action against AVEFA in % ([12]; Dosage 320 g/ha)	Post-emergence action against PHBPU in % ([13]; dosage 320 g/ha)	Pre-emergence action against LOLRI in % [14]	Pre-emergence action against ABUTH in % [15]	Pre-emergence action against MATIN in % [16]	Post-emergence action against LOLRI in % ([18]; Dosage 320 g/ha)	Pre-emergence action against AMARE in % [19]	Pre-emergence action against AVEFA in % [20]	also measured
CCOC(=O)COc1nn(-c2cnccn2)c(-c2cncc(F)c2)c1Cl [Example I-91]	100%	90%	90%	90%	90%	80%	90%	80%	100%	90%	80%	80%	90%	90%	100%	90%	100%	90%	100%	90%	Post-emergence action against AMARE in % ([4]; dosage 80 g/ha): 80%; Post-emergence action against ABUTH in % ([9]; dosage 80 g/ha): 80%; Post-emergence action against ABUTH in % ([9]; dosage 320 g/ha): 80%; Post-emergence action against POLCO in % ([17]; dosage 80 g/ha): 80%; Post-emergence action against POLCO in % ([17]; dosage 320 g/ha): 80%
O=C(O)COc1nn(-c2cnccn2)c(-c2cncc(F)c2)c1Cl [Example I-92]	90%	90%	90%	90%	90%	80%	80%	90%	100%	100%	80%	90%	90%	90%	100%	90%	100%	90%	100%	100%	Post-emergence action against ECHCG in % ([2]; Dosage 80 g/ha): 90%; Post-emergence action against AMARE in % ([4]; dosage 80 g/ha): 80%; Post-emergence action against ABUTH in % ([9]; dosage 320 g/ha): 90%; Post-emergence action against AVEFA in % ([12]; Dosage 80 g/ha): 90%; Post-emergence action against PHBPU in % ([13]; dosage 80 g/ha): 80%; Post-emergence action against ALOMY in % ([21]; Dosage 320 g/ha): 80%
C[C@@H](Oc1nn(-c2cnccn2)c(-c2cncc(F)c2)c1Br)C(=O)O [Example I-96]	100%	90%	90%	–	100%	90%	90%	100%	100%	100%	90%	90%	90%	90%	100%	90%	100%	100%	100%	90%	Post-emergence action against ECHCG in % ([2]; Dosage 80 g/ha): 80%; Post-emergence action against PHBPU in % ([13]; dosage 80 g/ha): 90%; Post-emergence action against POLCO in % ([17]; dosage 80 g/ha): 80%; Post-emergence action against POLCO in % ([17]; dosage 320 g/ha): 80%; Post-emergence action against LOLRI in % ([18]; Dosage 80 g/ha): 100%; Post-emergence action against MATIN in % ([22]; dosage 80 g/ha): 80%; Post-emergence action against MATIN in % ([22]; dosage 320 g/ha): 90%; Post-emergence action against ALOMY in % ([21]; Dosage 320 g/ha): 100%
C[C@@H](Oc1nn(-c2cnccn2)c(-c2cncc(F)c2)c1Cl)C(=O)O [Example I-97]	–	90%	100%	90%	90%	90%	90%	100%	100%	100%	90%	90%	100%	100%	100%	90%	100%	100%	100%	90%	Post-emergence action against ECHCG in % ([2]; Dosage 80 g/ha): 90%; Post-emergence action against AMARE in % ([4]; dosage 80 g/ha): 90%; Post-emergence action against ABUTH in % ([9]; dosage 80 g/ha): 90%; Post-emergence action against ABUTH in % ([9]; dosage 320 g/ha): 90%; Post-emergence action against PHBPU in % ([13]; dosage 80 g/ha): 90%; Post-emergence action against POLCO in % ([17]; dosage 80 g/ha): 90%; Post-emergence action against POLCO in % ([17]; dosage 320 g/ha): 90%; Post-emergence action against LOLRI in % ([18]; Dosage 80 g/ha): 90%; Post-emergence action against MATIN in % ([22]; dosage 80 g/ha): 90%; Post-emergence action against MATIN in % ([22]; dosage 320 g/ha): 90%; Post-emergence action against ALOMY in % ([21]; Dosage 320 g/ha): 90%
CCOC(=O)[C@@H](C)Oc1nn(-c2cnccn2)c(-c2cncc(F)c2)c1Cl [Example I-98]	100%	80%	80%	80%	90%	80%	80%	90%	100%	100%	80%	80%	80%	90%	90%	90%	90%	90%	100%	80%	Post-emergence action against ECHCG in % ([2]; Dosage 80 g/ha): 80%; Post-emergence action against ABUTH in % ([9]; dosage 80 g/ha): 80%; Post-emergence action against ABUTH in % ([9]; dosage 320 g/ha): 80%; Post-emergence action against AVEFA in % ([12]; Dosage 80 g/ha): 80%; Post-emergence action against PHBPU in % ([13]; dosage 80 g/ha): 90%; Post-emergence action against POLCO in % ([17]; dosage 320 g/ha): 80%; Post-emergence action against ALOMY in % ([21]; Dosage 80 g/ha): 80%; Post-emergence action against ALOMY in % ([21]; Dosage 320 g/ha): 80%
